Results on two molecules are retold here after ChEMBL document CHEMBL5620379, “Discovery, SAR and mechanistic studies of quinazolinone-based acetamide derivatives in experimental visceral leishmaniasis” (Eur J Med Chem, 2023).

Data set [1] deals with J774. As to the kind of experiment: Cytotoxicity against mouse J774 cells at 12.5 uM incubated for 72 hrs by MTT assay relative to control. The conditions noted are these: j774, 72 h. The format is toxicity, cell-based. (In general: Formazan colour is commonly taken as a measure of viable cells.)
For data set [2], the system named is J774. As to the kind of experiment: Cytotoxicity against mouse J774 cells at 25 uM incubated for 72 hrs by MTT assay relative to control. In kind it is toxicity, cell-based. The conditions noted are these: j774, 72 h.
For data set [3], the system named is J774. Put plainly: Cytotoxicity against mouse J774 cells at 50 uM incubated for 72 hrs by MTT assay relative to control. The format is toxicity, cell-based. The conditions noted are these: j774, 72 h.
Data set [4] has as its system Leishmania donovani. As to the kind of experiment: Antileishmanial activity against Leishmania donovani promastigotes measured after 48 hrs by MTT assay. In kind it is functional, organism-based.
Data set [5] has as its system Leishmania donovani. As to the kind of experiment: Antileishmanial activity against Leishmania donovani amastigotes infected in J774 macrophage assessed as inhibition of parasite growth incubated for 48 hrs by luciferase assay. In kind it is functional, organism-based. The conditions noted are these: J774, 48 h.
Data set [6] relates to J774. Put plainly: Cytotoxicity against mouse J774 macrophage incubated for 72 hrs by MTT assay. The format is functional.
The nature of data set [7]: Selectivity index, ratio of CC50 for mouse J774 macrophage to IC50 for Leishmania donovani amastigotes infected in J774 macrophage. The conditions noted are these: J774 macrophages, read-out: Ratio CC50/IC50. The format is toxicity.
Data set [8] relates to Leishmania donovani. Put plainly: Antileishmanial activity against amastigote form of Leishmania donovani infected in BALB/c mouse assessed as inhibition of parasite growth in liver at 20 mg/kg, po measured after 1 week post treatment by geimsa staining based analysis relative to control. The conditions noted are these: time 1 weeks. More on the design: scale not given: the % may be the effect or the level left. The format is functional.

Data set [9] has as its system Leishmania donovani. As to the kind of experiment: Antileishmanial activity against amastigote form of Leishmania donovani infected in BALB/c mouse assessed as inhibition of parasite growth in spleen at 20 mg/kg, po measured after 1 week post treatment by geimsa staining based analysis relative to control. Further details: scale not given: the % may be the effect or the level left. The conditions noted are these: time 1 weeks. The format is functional.

The test system of data set [10] is Leishmania donovani. Put plainly: Antileishmanial activity against Leishmania donovani infected in golden hamster assessed as elimination of organ parasite burden at 30 mg/kg, po administered for 7 days and measured after 28 days by giemsa staining based analysis relative to control. In kind it is functional. The conditions noted are these: time 28 day.
Data set [11] in a line: Toxicity in golden hamster infected with Leishmania donovani assessed as reduction in serum AST level at 30 mg/kg ,po and measured after 28 days post infection (reference value: 82.72 IU/L). The format is organism-based, Mesocricetus auratus. The conditions noted are these: in vivo, 672 h, time 28 day.
The nature of data set [12]: Toxicity in golden hamster infected with Leishmania donovani assessed as reduction in serum ALT level at 30 mg/kg ,po and measured after 28 days post infection (reference value: 81.58 IU/L). In kind it is organism-based, Mesocricetus auratus. The conditions noted are these: in vivo, 672 h, time 28 day.
A short description of data set [13]: Renal toxicity in golden hamster assessed as effect on creatinine level at 30 mg/kg, po measured after 28 days post infection. The format is organism-based, Mesocricetus auratus. The conditions noted are these: in vivo, 672 h, time 28 day.
The nature of data set [14]: Renal toxicity in golden hamster assessed as effect on urea level at 30 mg/kg, po measured after 28 days post infection. The conditions noted are these: in vivo, 672 h, time 28 day. In kind it is organism-based, Mesocricetus auratus.
Data set [15] relates to Leishmania donovani. As to the kind of experiment: Antileishmanial activity against Leishmania donovani promastigotes at 25 uM measured after 48 hrs by MTT assay relative to control. The format is functional.
Data set [16] has as its system Leishmania donovani. Put plainly: Antileishmanial activity against Leishmania donovani amastigotes infected in J774 macrophage assessed as inhibition of parasite growth at 25 uM incubated for 48 hrs by luciferase assay relative to control. The format is functional. More on the design: scale not given: the % may be the effect or the level left.
Data set [17] in a line: Stability of the compound in stimulated gastric fluid at 10 ug/ml at pH 1.2 measured upto 120 min by HPLC analysis. In kind it is ADME. The conditions noted are these: simulated gastric fluid, at 10 µg/mL, read-out: Stability.
A short description of data set [18]: Stability of the compound in stimulated intestinal fluid at 10 ug/ml at pH 6.8 measured after 120 min by HPLC analysis. In kind it is ADME. The conditions noted are these: simulated intestinal fluid, at 10 µg/mL, read-out: Stability.
Data set [19] in a line: Stability of the compound in Tris-buffer at 10 ug/ml at pH 7.4 measured upto 120 min by HPLC analysis. In kind it is physicochemical. The conditions noted are these: at 10 µg/mL, read-out: Stability.
In data set [20] the test system is Leishmania donovani. As to the kind of experiment: Antileishmanial activity against amastigote form of Leishmania donovani infected in BALB/c mouse assessed as inhibition of parasite growth in liver at 10 mg/kg, po measured after 1 week post treatment by geimsa staining based analysis relative to control. The format is functional. More on the design: scale not given: the % may be the effect or the level left. The conditions noted are these: time 1 weeks.

In data set [21] the test system is Leishmania donovani. Put plainly: Antileishmanial activity against amastigote form of Leishmania donovani infected in BALB/c mouse assessed as inhibition of parasite growth in spleen at 10 mg/kg, po measured after 1 week post treatment by geimsa staining based analysis relative to control. More on the design: scale not given: the % may be the effect or the level left. The format is functional. The conditions noted are these: time 1 weeks.

The test system of data set [22] is Leishmania donovani. As to the kind of experiment: Antileishmanial activity against amastigote form of Leishmania donovani infected in BALB/c mouse assessed as inhibition of parasite growth in liver at 40 mg/kg, po measured after 1 week post treatment by geimsa staining based analysis relative to control. The format is functional. More on the design: scale not given: the % may be the effect or the level left. The conditions noted are these: time 1 weeks.

Data set [23] relates to Leishmania donovani. Put plainly: Antileishmanial activity against amastigote form of Leishmania donovani infected in BALB/c mouse assessed as inhibition of parasite growth in spleen at 40 mg/kg, po measured after 1 week post treatment by geimsa staining based analysis relative to control. In kind it is functional. More on the design: scale not given: the % may be the effect or the level left. The conditions noted are these: time 1 weeks.

Data set [24] is described as follows: Toxicity in BALB/c mouse assessed as effect on body weight at 10 to 40 mg/kg, po measured after 1 week. The format is organism-based. The conditions noted are these: in vivo, 168 h, dose 10-40 mg/kg, time 1 weeks.
A short description of data set [25]: Toxicity in BALB/c mouse assessed as effect on skin texture at 10 to 40 mg/kg, po measured after 1 week. The format is organism-based. The conditions noted are these: in vivo, 168 h, dose 10-40 mg/kg, time 1 weeks.
Data set [26] relates to Splenocyte. Put plainly: Immunostimulatory activity in mouse splenocyte assessed as fold increase in IL-12 synthesis at 10 to 40 mg/kg measured after 1 week by RT-PCR analysis. In kind it is functional. The conditions noted are these: dose 10-40 mg/kg; time 1 weeks.
In data set [27] the test system is Splenocyte. As to the kind of experiment: Immunostimulatory activity in mouse splenocyte assessed as decrease in IL-10 secretion at 10 to 40 mg/kg measured after 1 week by RT-PCR analysis relative to control. The format is functional. Further details: scale not given: the % may be the effect or the level left. The conditions noted are these: dose 10-40 mg/kg, time 1 weeks.

For data set [28], the system named is Leishmania donovani. As to the kind of experiment: Antileishmanial activity against Leishmania donovani infected in golden hamster assessed as inhibition of parasite growth in liver at 40 mg/kg, po administered for 7 days and measured after 28 days by giemsa staining based analysis relative to control. In kind it is functional. More on the design: scale not given: the % may be the effect or the level left. The conditions noted are these: time 28 day.

Data set [29] has as its system Leishmania donovani. Put plainly: Antileishmanial activity against Leishmania donovani infected in golden hamster assessed as inhibition of parasite growth in spleen at 40 mg/kg, po administered for 7 days and measured after 28 days by giemsa staining based analysis relative to control. More on the design: scale not given: the % may be the effect or the level left. In kind it is functional. The conditions noted are these: time 28 day.

For data set [30], the system named is Leishmania donovani. As to the kind of experiment: Antileishmanial activity against Leishmania donovani infected in golden hamster assessed as inhibition of parasite growth in liver at 80 mg/kg, po administered for 7 days and measured after 28 days by giemsa staining based analysis relative to control. The format is functional. More on the design: scale not given: the % may be the effect or the level left. The conditions noted are these: time 28 day.

For data set [31], the system named is Leishmania donovani. Put plainly: Antileishmanial activity against Leishmania donovani infected in golden hamster assessed as inhibition of parasite growth in spleen at 80 mg/kg, po administered for 7 days and measured after 28 days by giemsa staining based analysis relative to control. Further details: scale not given: the % may be the effect or the level left. In kind it is functional. The conditions noted are these: time 28 day.

Data set [32] can be described thus: Toxicity in golden hamster infected with Leishmania donovani assessed as reduction in serum AST level at 40 mg/kg ,po and measured after 28 days post infection (reference value: 82.72 IU/L). The format is organism-based, Mesocricetus auratus. The conditions noted are these: in vivo, 672 h, time 28 day.
Data set [33] in a line: Toxicity in golden hamster infected with Leishmania donovani assessed as reduction in serum ALT level at 40 mg/kg ,po and measured after 28 days post infection (reference value: 81.58 IU/L). In kind it is organism-based, Mesocricetus auratus. The conditions noted are these: in vivo, 672 h, time 28 day.
A short description of data set [34]: Renal toxicity in golden hamster assessed as effect on creatinine level at 40 mg/kg, po measured after 28 days post infection. The format is organism-based, Mesocricetus auratus. The conditions noted are these: in vivo, 672 h, time 28 day.
The nature of data set [35]: Renal toxicity in golden hamster assessed as effect on urea level at 40 mg/kg, po measured after 28 days post infection. The conditions noted are these: in vivo, 672 h, time 28 day. The format is organism-based, Mesocricetus auratus.

Structures are written as SMILES.

`CCCCCCCCCCCCCCCCOP(=O)([O-])OCC[N+](C)(C)C` [MILTEFOSINE]: the Activity in the data set with J774 [1] stood at 85.44%; in the data set on J774 [2], 76.74%; in the data set with J774 [3], 53.21%; with Leishmania donovani [8], 97.23%; with Leishmania donovani [9], 98.51%; in the data set on Leishmania donovani [10], 100%. The Activity was 25 IU/L in data set [11], 20 IU/L in data set [12], “Non-Toxic” in [13] and “Non-Toxic” in data set [14]. Besides, the values for the half-maximal inhibitory concentration (IC50) in the data set on Leishmania donovani [4] and in the data set on Leishmania donovani [5] were 6.91 µM and 11 µM, respectively. Moreover, the 50% cytotoxic concentration (CC50) (usually the concentration that lowers cell viability or growth by half) in the data set with J774 [6] worked out at 68 µM. Also, the selectivity ratio in data set [7] was found to be 6.21.
Take `CCn1c(-c2ccc(OCC(=O)Nc3ccccc3)cc2)nc2ccccc2c1=O`: the Activity with J774 [1] amounted to 84.82%; in the data set on J774 [2] it was 77.94%; with J774 [3] it was 42.29%; in the data set with Leishmania donovani [15] it was 84.61%; in the data set with Leishmania donovani [16], 80.66%; with Leishmania donovani [20] it was 29.8%. The Activity with Leishmania donovani [8] is reported as 54.4%; with Leishmania donovani [21], 28.1%; in the data set on Leishmania donovani [9], 53.3%; in the data set on Leishmania donovani [22] it was 77.3%; with Leishmania donovani [23], 74.1%; in [24], “Non-Toxic”. Also, the Activity result was “Non-Toxic” in data set [25]; 23.68% in the data set on Splenocyte [27]; 46.1% with Leishmania donovani [28]; 53.9% in the data set on Leishmania donovani [29]; 77.1% in the data set with Leishmania donovani [30]; 75.7% with Leishmania donovani [31]. The Activity in data set [32] is 119.82 IU/L; in [33], 100.8 IU/L; in data set [34], “Non-Toxic”; in data set [35] it was “Non-Toxic”. Besides, the figures for the IC50 in the data set on Leishmania donovani [4] and with Leishmania donovani [5] were 5.76 µM and 6.02 µM, respectively. In the data set on J774 [6], this molecule returned a CC50 of 72.9 µM. The selectivity ratio in data set [7] was 12.1. Further, the remaining at 2 h, 10 ug/ml in [17] was 88.8%; in [18], 89.6%; in [19], 91.6%. Also, the “fold change (FC)” value in the data set on Splenocyte [26] is 2.03.
